Test results published in US20040082503A1, “Methods for treatment of diabetes using peptide analogues of insulin” (Neurocrine Biosciences, Inc., priority 1998, published 2004).

How the values were obtained:
[1] = tested on: Insulin B chain (9-23) specific murine T cell clone PD12-4.1; experiment: Proliferation of insulin B chain (9-23) specific murine T cell clone PD12-4.1; format: cell-based, mouse (NOD); conditions: clone PD12-4.1, 50 μM peptide, Exp. 1; for S.I. (Stimulation Index): cpm with peptide/cpm in medium alone
Method: Insulin specific NOD T cell lines were established by culturing lymphocytes isolated from islet-infiltrating populations by in vitro stimulation with either porcine insulin at 25 μg/ml and irradiated NOD islet cell in the presence of irradiated NOD spleen cells as antigen presenting cells and cytokines. To obtain the infiltrating lymphocytes the following procedures were performed (see Wegmann et al., Eur. J. Immunol. 24:1853, 1994): the pancreas from the NOD mouse was digested with collagenase and individual islets were isolated manually. The infiltrating lymphocytes were then obtained by mild trypsin digestion of the islets. The insulin specific T cell lines or clones were propagated by serial stimulation in the presence of NOD spleen cells, porcine insulin and lymphokines. Clones were obtained by limiting dilution of the B chain (9-23) specific T cell lines in the presence of the antigen presenting cells and porcine insulin at 25 μg/ml. Wells with a growing population of cells following limiting dilution were expanded in appropriate medium, and after one cycle of growth were tested for reactivity to the B chain (9-23) peptide of insulin by evaluating the proliferative response.
Insulin B chain (9-23) (SEQ ID NO:2) specific mouse (NOD) T cell clones were isolated from infiltrated islets as described in Example 2. Peptide analogues with single alanine substitutions were prepared as described in Example 1. The effect of each analogue on T cell proliferation was then evaluated using an assay performed in 96-well flat bottom microtiter plates (see Daniel et al., Eur. J. Immunol. 25:1056, 1995). Briefly 25,000 T cell clones along with 1 million irradiated NOD spleen cells were cultured in the presence of 50 μg/ml of insulin B chain 9-23 peptide or any of the alanine substituted peptides listed below in triplicate sets. The plates were incubated for a total of 72 hours in 7% carbon dioxide atmosphere with a pulse of 1 μCi/well of tritiated thymidine for the last 6-8 hours of culture. Cells were harvested on a glass fiber filter and the associated radioactivity was counted in a liquid scintillation counter. Results are expressed as mean counts per minute of triplicate wells.
NOD T cell clones were incubated in the presence of 50 μM of either the native B chain (9-23) peptide or NBI-6024. The data in Table 3 represent the mean of triplicate sample±standard error of the mean. Within Table 3, S.I. (Stimulation Index)=proliferation (cpm) in the presence of the peptide/proliferation (cpm) in medium alone.

[2] = tested on: lymph node and spleen cells from immunized NOD mice; experiment: Immunogenicity in NOD mice: proliferative response of lymph node/spleen cells of immunized mice; format: cell-based, NOD mouse
Method: FIGS. 17A and 17B are graphs showing the ability of a double substituted peptide (A^16,19) to evoke an immune response. Five female NOD mice were immunized subcutaneously with 20 mg/kg of soluble NBI-6024 on days 1, 6 and 12. On day 15, the mice were sacrificed, the inguinal lymph node cells removed and culture in the presence of varying concentrations (0-50 μM) of either NBI-6024 (FIG. 17A) or insulin B chain (9-23) peptide (FIG. 17B). The extent of T-cell proliferation was determined using ^3H-thymidine incorporation. The response is expressed as mean CPM±SEM of triplicate cultures.
Groups of 3-4 NOD mice were immunized with 100-400 μg of peptide analogues subcutaneously in mannitol acetate buffer three times within a period of 10-15 days. Following the last immunization, lymph node cells and/or spleen cells were used in a proliferation assay in which different concentrations of the immunizing peptide were cultured with the cells for 3-4 days. The last 18 hours of culture included tritiated thymidine. Cells were harvested and counted in a scintillation counter and the response is expressed as CPM±SEM.
The ability of the double substituted peptide NBI-6024 (A^16,19) to induce a cellular immune response in NOD mouse strain was next determined. Two female NOD mice were immunized with 10 mg/kg NBI-6024 either as an aqueous suspension or, as a control, emulsified in complete Freund's adjuvant (CFA). On Day 8, three days following the last injection, the mice were sacrificed, the spleen and inguinal lymph node cells were removed and pooled, and a single-cell suspension was prepared. Cells were cultured in the presence of varying concentrations (0-25 μM) of NBI-6024. The ability of these lymphoid cells to proliferate in response to NBI-6024 was measured in vitro by [^3H]-thymidine incorporation.

[3] = T cells of Mouse #1 immunized with soluble NBI-6024, challenge peptide 1 μM, 0 μM 19,130 ± 2191
[4] = T cells of Mouse #1 immunized with soluble NBI-6024, challenge peptide 5 μM
[5] = T cells of Mouse #1 immunized with soluble NBI-6024, challenge peptide 25 μM
[6] = T cells of Mouse #2 immunized with soluble NBI-6024, challenge peptide 1 μM, 0 μM 21,588 ± 2326
[7] = T cells of Mouse #2 immunized with soluble NBI-6024, challenge peptide 5 μM
[8] = T cells of Mouse #2 immunized with soluble NBI-6024, challenge peptide 25 μM
[9] = T cells of Mouse #3 immunized with soluble NBI-6024, challenge peptide 1 μM, 0 μM 24,006 ± 2803
[10] = T cells of Mouse #3 immunized with soluble NBI-6024, challenge peptide 5 μM
[11] = T cells of Mouse #3 immunized with soluble NBI-6024, challenge peptide 25 μM

Row | Substance | Proliferative response, Mean cpm ± sem [1] | S.I. (Stimulation Index) [1] | Cross-reactive response to Insulin B chain (9-23) ([2]; CFA-emulsified peptide) | CPM ± SEM [2, 3] | CPM ± SEM [2, 4] | CPM ± SEM [2, 5] | CPM ± SEM [2, 6] | CPM ± SEM [2, 7] | CPM ± SEM [2, 8] | CPM ± SEM [2, 9] | CPM ± SEM [2, 10] | CPM ± SEM [2, 11] | Proliferative response to challenge with the immunizing analogue ([2]; lymph node cells from mice immunized with the analogue in CFA, dose-dependent) | Cross-reactive response to Insulin B chain (9-23) ([2]; lymphocytes from mice immunized with the soluble peptide) | Proliferative response to NBI-6024 challenge in vitro ([2]; spleen and inguinal lymph node cells after soluble administered peptide)
1 | NBI-6024: insulin B chain 9-23 with alanine substitutions at positions 16 and 19 (SHLVEALALVAGERG) | 566 ± 30 cpm | 2.63 | not seen | 48,319 ± 1918 CPM | 160,673 ± 2269 CPM | 268,005 ± 11198 CPM | 54,519 ± 5666 CPM | 126,123 ± 13851 CPM | 202,707 ± 8125 CPM | 64,239 ± 9493 CPM | 140,836 ± 11778 CPM | 240,278 ± 15015 CPM | strong proliferative response | also responded to Insulin B chain (9-23) | strong proliferative response
2 | Native 9-23: native peptide, residues 9-23 of human insulin B chain (SEQ ID NO:2) (SHLVEALYLVCGERG; Residues 9-23 of human insulin B chain; listed as Homo sapiens) [reference compound] | 28,593 ± 4664 cpm | 132.99 |  | 16,870 ± 4469 CPM | 21,292 ± 3216 CPM | 33,317 ± 3619 CPM | 17,262 ± 602 CPM | 19,648 ± 2169 CPM | 30,612 ± 3557 CPM | 25,825 ± 3841 CPM | 58,567 ± 2737 CPM | 113,366 ± 515 CPM |  |  | 
